Laboratory results reported in US20230040770A1, “HETEROCYCLIC COMPOUND AND USE THEREOF” (TAKEDA PHARMACEUTICAL COMPANY LIMITED, priority 2019, published 2023).

The compounds below were run against T1, human orexin type 2 receptor (Homo sapiens, UniProt O43614) (assay: Measurement of orexin type 2 receptor agonist activity (calcium indicator fluorescence, CHO cells forcibly expressing human OX2 receptor)). Settings: compound at 3 μM; 0% = DMSO, 100% = orexin A (human) 10 nM.
T1 construct: expressed in transfected cells
T1 sequence (O43614 1-444): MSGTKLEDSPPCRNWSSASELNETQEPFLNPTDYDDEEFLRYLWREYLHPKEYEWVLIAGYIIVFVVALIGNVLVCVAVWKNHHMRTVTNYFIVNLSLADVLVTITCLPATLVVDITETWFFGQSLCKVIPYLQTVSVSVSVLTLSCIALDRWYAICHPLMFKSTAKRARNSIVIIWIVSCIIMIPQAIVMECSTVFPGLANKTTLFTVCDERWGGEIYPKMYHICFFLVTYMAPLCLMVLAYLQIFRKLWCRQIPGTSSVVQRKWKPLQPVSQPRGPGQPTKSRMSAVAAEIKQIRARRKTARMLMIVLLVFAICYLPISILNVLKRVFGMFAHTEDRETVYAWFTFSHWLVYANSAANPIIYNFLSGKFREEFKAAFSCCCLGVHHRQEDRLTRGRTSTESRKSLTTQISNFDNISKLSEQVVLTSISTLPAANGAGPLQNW
Assay type: cell-based
In short: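 CHO-dhfr cells stably expressing human OX2R, loaded with Fluo-4 AM (30 min 37 °C, then 30 min RT), then given test compound. Calcium fluorescence read by FDSS over ~2 min. Activity (%) scaled from DMSO (0%) to 10 nM final orexin A (100%).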

OX2R agonist activity (3 μM, %) [%] | SMILES
98 | CCS(=O)(=O)N[C@@H]1[C@H](Cc2cccc(-c3cccc(OC)c3)c2F)N(C(=O)C(C)C)CC1(F)F [Example 511, N-[(2S,3R)-4,4-difluoro-2-[(2-fluoro-3′-methoxy[1,1′-biphenyl]-3-yl)methyl]-1-(2-methylpropanoyl)pyrrolidin-3-yl]ethanesulfonamide]
95 | CCS(=O)(=O)N[C@@H]1[C@H](Cc2cccc(-c3cccc(OC)c3)c2F)N(C(=O)C2CC2)CC1(F)F [Example 512, N-{(2S,3R)-1-(cyclopropanecarbonyl)-4,4-difluoro-2-[(2-fluoro-3′-methoxy[1,1′-biphenyl]-3-yl)methyl]pyrrolidin-3-yl}ethanesulfonamide]
97 | CCS(=O)(=O)N[C@@H]1[C@H](Cc2cccc(-c3cccc(OC)c3)c2F)N(C(=O)C2(O)CCC2)CC1(F)F [Example 513, N-[(2S,3R)-4,4-difluoro-2-[(2-fluoro-3′-methoxy[1,1′-biphenyl]-3-yl)methyl]-1-(1-hydroxycyclobutane-1-carbonyl)pyrrolidin-3-yl]ethanesulfonamide]
95 | CCS(=O)(=O)N[C@H]1[C@@H](F)CN(C(=O)C2CC2)[C@H]1Cc1cccc(-c2cccc(C)c2)c1F [Example 514, N-{(2S,3R,4S)-1-(cyclopropanecarbonyl)-4-fluoro-2-[(2-fluoro-3′-methyl[1,1′-biphenyl]-3-yl)methyl]pyrrolidin-3-yl}ethanesulfonamide]
98 | CCS(=O)(=O)N[C@H]1[C@@H](F)CN(C(=O)C2CC2)[C@H]1Cc1cccc(-c2cc(C)cc(F)c2)c1F [Example 515, N-{(2S,3R,4S)-1-(cyclopropanecarbonyl)-2-[(2,3′-difluoro-5′-methyl[1,1′-biphenyl]-3-yl)methyl]-4-fluoropyrrolidin-3-yl}ethanesulfonamide]
102 | CCS(=O)(=O)N[C@H]1[C@@H](F)CN(C(=O)C2CC2)[C@H]1Cc1cccc(-c2cccc(Cl)c2)c1F [Example 516, N-[(2S,3R,4S)-2-[(3′-chloro-2-fluoro[1,1′-biphenyl]-3-yl)methyl]-1-(cyclopropanecarbonyl)-4-fluoropyrrolidin-3-yl]ethanesulfonamide]
100 | CCS(=O)(=O)N[C@H]1[C@@H](F)CN(C(=O)C2CC2)[C@H]1Cc1cccc(-c2cc(F)cc(Cl)c2)c1F [Example 517, N-[(2S,3R,4S)-2-[(3′-chloro-2,5′-difluoro[1,1′-biphenyl]-3-yl)methyl]-1-(cyclopropanecarbonyl)-4-fluoropyrrolidin-3-yl]ethanesulfonamide]
98 | CCS(=O)(=O)N[C@H]1[C@@H](F)CN(C(=O)C2CC2)[C@H]1Cc1cccc(-c2ccccc2F)c1F [Example 518, N-{(2S,3R,4S)-1-(cyclopropanecarbonyl)-2-[(2,2′-difluoro[1,1′-biphenyl]-3-yl)methyl]-4-fluoropyrrolidin-3-yl}ethanesulfonamide]
98 | CCS(=O)(=O)N[C@H]1[C@@H](F)CN(C(=O)C2CC2)[C@H]1Cc1cccc(-c2cccc(C)c2F)c1F [Example 519, N-{(2S,3R,4S)-1-(cyclopropanecarbonyl)-2-[(2,2′-difluoro-3′-methyl[1,1′-biphenyl]-3-yl)methyl]-4-fluoropyrrolidin-3-yl}ethanesulfonamide]
94 | CCS(=O)(=O)N[C@H]1[C@@H](F)CN(C(=O)C2CC2)[C@H]1Cc1cccc(-c2cccc(Cl)c2F)c1F [Example 520, N-[(2S,3R,4S)-2-[(3′-chloro-2,2′-difluoro[1,1′-biphenyl]-3-yl)methyl]-1-(cyclopropanecarbonyl)-4-fluoropyrrolidin-3-yl]ethanesulfonamide]
97 | Cc1cccc(-c2cccc(C[C@H]3[C@@H](NS(=O)(=O)C4CC4)C(F)(F)CN3C(=O)N(C)C)c2F)c1F [Example 521, (2S,3R)-3-[(cyclopropanesulfonyl)amino]-2-[(2,2′-difluoro-3′-methyl[1,1′-biphenyl]-3 yl)methyl]-4,4-difluoro-N,N-dimethylpyrrolidine-1-carboxamide]
97 | Cc1cc(F)cc(-c2cccc(C[C@H]3[C@@H](NS(=O)(=O)C4CC4)C(F)(F)CN3C(=O)N(C)C)c2F)c1 [Example 522, (2S,3R)-3-[(cyclopropanesulfonyl)amino]-2-[(2,3′-difluoro-5′-methyl[1,1′-biphenyl]-3-yl)methyl]-4,4-difluoro-N,N-dimethylpyrrolidine-1-carboxamide]
86 | CN(C)C(=O)N1CC(F)(F)[C@H](NS(=O)(=O)C2CC2)[C@@H]1Cc1cccc(-c2cccc(F)c2)c1F [Example 523, (2S,3R)-3-[(cyclopropanesulfonyl)amino]-2-[(2,3′-difluoro[1,1′-biphenyl]-3-yl)methyl]-4,4-difluoro-N,N-dimethylpyrrolidine-1-carboxamide]
87 | CN(C)C(=O)N1CC(F)(F)[C@H](NS(=O)(=O)C2CC2)[C@@H]1Cc1cccc(-c2cc(F)cc(F)c2)c1F [Example 524, (2S,3R)-3-[(cyclopropanesulfonyl)amino]-4,4-difluoro-N,N-dimethyl-2-[(2,3′,5′-trifluoro[1,1′-biphenyl]-3-yl)methyl]pyrrolidine-1-carboxamide]
85 | O=C(N1CCC1)N1CC(F)(F)[C@H](NS(=O)(=O)C2CC2)[C@@H]1Cc1cccc(-c2cc(F)cc(F)c2)c1F [Example 525, N-{(2S,3R)-1-(azetidine-1-carbonyl)-4,4-difluoro-2-[(2,3′,5′-trifluoro[1,1′-biphenyl]-3-yl)methyl]pyrrolidin-3-yl]cyclopropanesulfonamide]
83 | Cc1cc(F)cc(-c2cccc(C[C@H]3[C@@H](NS(=O)(=O)N(C)C)C(F)(F)CN3C(=O)N(C)C)c2F)c1 [Example 526, (2S,3R)-2-[(2,3′-difluoro-5′-methyl[1,1′-biphenyl]-3-yl)methyl]-3-[(dimethyslulfamoyl)amino]-4,4-difluoro-N,N-dimethylpyrrolidine-1-carboxamide]
95 | Cc1cccc(-c2cccc(C[C@H]3[C@@H](NS(=O)(=O)C4CC4)C(F)(F)CN3C(=O)N3CCC3)c2F)c1F [Example 527, N-{(2S,3R)-1-(azetidine-1-carbonyl)-2-[(2,2′-difluoro-3′-methyl[1,1′-biphenyl]-3-yl)methyl]-4,4-difluoropyrrolidin-3-yl}cyclopropanesulfonamide]
83 | CN(C)C(=O)N1CC(F)(F)[C@H](NS(=O)(=O)N(C)C)[C@@H]1Cc1cccc(-c2cccc(F)c2)c1F [Example 528, (2S,3R)-2-[(2,3′-difluoro[1,1′-biphenyl]-3-yl)methyl]-3-[(dimethylsulfamoyl)amino]-4,4-difluoro-N,N-dimethylpyrrolidine-1-carboxamide]
95 | Cc1cc(F)cc(-c2cccc(C[C@H]3[C@@H](NS(=O)(=O)C4CC4)C(F)(F)CN3C(=O)N3CCC3)c2F)c1 [Example 529, N-{(2S,3R)-1-(azetidine-1-carbonyl)-2-[(2,3′-difluroo-5′-methyl[1,1′-biphenyl]-3-yl)methyl]-4,4-difluoropyrrolidin-3-yl}cyclopropanesulfonamide]
94 | Cc1cccc(-c2cccc(C[C@H]3[C@@H](NS(=O)(=O)C4CC4)C(F)(F)CN3C(=O)[C@H]3CCO3)c2F)c1F [Example 530, N-{(2S,3R)-2-[(2,2′-difluoro-3′-methyl[1,1′-biphenyl]-3-yl)methyl]-4,4-difluoro-1-[(2R)-oxetane-2-carbonyl]pyrrolidin-3-yl}cyclopropanesulfonamide]
95 | Cc1cccc(-c2cccc(C[C@H]3[C@@H](NS(=O)(=O)N(C)C)C(F)(F)CN3C(=O)N(C)C)c2F)c1F [Example 531, (2S,3R)-2-[(2,2′-difluoro-3′-methyl[1,1′-biphenyl]-3-yl)methyl]-3-[(dimethylsulfamoyl)amino]-4,4-difluoro-N,N-dimethylpyrrolidine-1-carboxamide]
96 | CN(C)C(=O)N1CC(F)(F)[C@H](NS(=O)(=O)N(C)C)[C@@H]1Cc1cccc(-c2cc(F)cc(F)c2)c1F [Example 532, (2S,3R)-3-[(dimethylsulfamoyl)amino]-4,4-difluoro-N,N-dimethyl-2-[(2,3′,5′-trifluoro[1,1′-biphenyl]-3-yl)methyl]pyrrolidine-1-carboxamide]
101 | Cc1cc(F)cc(-c2cccc(C[C@H]3[C@@H](NS(=O)(=O)C4CC4)C(F)(F)CN3C(=O)[C@H]3CCO3)c2F)c1 [Example 533, N-{(2S,3R)-2-[(2,3′-difluoro-5′-methyl[1,1′-biphenyl]-3-yl)methyl]-4,4-difluoro-1-[(2R)-oxetane-2-carbonyl]pyrrolidin-3-yl}cyclopropanesulfonamide]
